Measurements: patent US9499466B2, “Diene-based carboxylate anion and salt thereof, and polymerizable or curable composition thereof” (NIPPON SHOKUBAI CO., LTD., priority 2010, dated 2016)

Experiments:
[1] = Solubility test (film-forming method); details: for Solubility (film-forming method) Water: solvent dropped on film on glass plate
Method: Each compound was applied on a glass plate and the glass plate was leaned against the wall. Each solvent shown in Table 5 was dropped (5 to 6 drops) on the glass plate with a pasteur pipette. The glass plate was visually observed after the dropped solvent was dried, the surface was optionally rubbed with a spatula, and the solubility (film-forming method) was evaluated according to the criteria shown in Table 4.

[2] = Adhesion of cured material to PET film (cross-cut method, JIS K 5600-5-6); details: UV-cured film on surface-untreated PET film, cross-cut 10×10
Method: Each compound shown in Table 11 was formed into a UV-cured film on a PET film in the same manner as in the pencil hardness test, except that the PET film used as a substrate was a surface-untreated polyethylene terephthalate (PET) film (Lumirror L-50T60, produced by Toray Industries, Inc.).
The adhesion of the UV-cured film to the PET film was evaluated based on JIS K 5600-5-6 (cross-cut method). The number of divided segments was 10×10 segments=100 segments. The adhesion was evaluated by the number of the segments which remain without peeling or damage in 100 segments.

[3] = Solubility test (dissolution method); details: for Solubility (dissolution method) Water: mixed at 1%, 3%, 5%, 10%, 20% or more
Source text: The solubility evaluation by the dissolution method requires complicated operations and a large amount of test sample. Therefore, this test is not suitable for screening. However, the solubility of each compound can be more accurately evaluated.

Structure (SMILES)	Solubility (film-forming method) Water [1]	Adhesion (segments remaining without peeling or damage in 100 segments) [2]	Solubility (dissolution method) Acetone [3]	Solubility (dissolution method) Acetonitrile [3]	Solubility (dissolution method) Ethyl acetate [3]	Solubility (dissolution method) Methanol [3]	Solubility (dissolution method) THF [3]	Solubility (dissolution method) Toluene [3]	Solubility (dissolution method) Water [3]	Solubility (film-forming method) Acetonitrile [1]	Solubility (film-forming method) Methanol [1]	Solubility (film-forming method) Acetone [1]	Solubility (film-forming method) Ethyl acetate [1]	Solubility (film-forming method) THF ([1]; THF)	Solubility (film-forming method) Toluene ([1]; Toluene)
C=CCOCC(=C)C(=O)[O-].C=CCOCC(=C)C(=O)[O-].[Zn+2] [Zn(AMA)2]	X-Δ	100/100	–	–	–	–	–	–	–	–	–	–	–	–	–
C=CCOCC(=C)C(=O)OCCOCCOC(=O)C(=C)COCC=C [DEG-AMA, diethylene glycol di(α-allyloxymethyl acrylate), reference compound]	–	85/100	◯◯ (Become uniform and transparent at a compound concentration of 20% or more)	◯◯ (Become uniform and transparent at a compound concentration of 20% or more)	◯◯ (Become uniform and transparent at a compound concentration of 20% or more)	◯◯ (Become uniform and transparent at a compound concentration of 20% or more)	◯◯ (Become uniform and transparent at a compound concentration of 20% or more)	◯◯ (Become uniform and transparent at a compound concentration of 20% or more)	X (Not become uniform and transparent even at a compound concentration of 1%)	–	–	–	–	–	–
C=CCOCC(=C)C(=O)[O-].C=CCOCC(=C)C(=O)[O-].[Co+2] [Co(AMA)2]	–	–	–	–	–	–	–	◯◯ (Become uniform and transparent at a compound concentration of 20% or more)	–	X-Δ	X-Δ	–	–	–	–
C=CCOCC(=C)C(=O)[O-].C=CCOCC(=C)C(=O)[O-].C=CCOCC(=C)C(=O)[O-].[Er+3] [Er(AMA)3]	X-Δ	–	–	–	–	–	◯◯ (Become uniform and transparent at a compound concentration of 20% or more)	◯ (Become uniform and transparent at a compound concentration of 10%)	–	–	–	–	–	–	–
C=CCOCC(=C)C(=O)[O-].C=CCOCC(=C)C(=O)[O-].C=CCOCC(=C)C(=O)[O-].[Fe+3] [Fe(AMA)3]	X-Δ	–	–	–	–	–	–	◯◯ (Become uniform and transparent at a compound concentration of 20% or more)	–	–	–	–	–	–	–
C=CCOCC(=C)C(=O)[O-].C=CCOCC(=C)C(=O)[O-].CC(C)[O][Ti+2][O]C(C)C [(i-C3H7O)2Ti(AMA)2]	–	–	◯◯ (Become uniform and transparent at a compound concentration of 20% or more)	◯◯ (Become uniform and transparent at a compound concentration of 20% or more)	◯◯ (Become uniform and transparent at a compound concentration of 20% or more)	◯◯ (Become uniform and transparent at a compound concentration of 20% or more)	◯◯ (Become uniform and transparent at a compound concentration of 20% or more)	◯◯ (Become uniform and transparent at a compound concentration of 20% or more)	X (Not become uniform and transparent even at a compound concentration of 1%)	X-Δ	X-Δ	X-Δ	X-Δ	X-Δ	X-Δ
C=CC(=O)OCC(C)(C)COC(=O)C=C [NPGDA, reference compound]	–	49/100	◯◯ (Become uniform and transparent at a compound concentration of 20% or more)	◯◯ (Become uniform and transparent at a compound concentration of 20% or more)	◯◯ (Become uniform and transparent at a compound concentration of 20% or more)	◯◯ (Become uniform and transparent at a compound concentration of 20% or more)	◯◯ (Become uniform and transparent at a compound concentration of 20% or more)	◯◯ (Become uniform and transparent at a compound concentration of 20% or more)	X (Not become uniform and transparent even at a compound concentration of 1%)	–	–	–	–	–	–
C=CC(=O)OCCOCCOC(=O)C=C [DEGDA, reference compound]	–	32/100	◯◯ (Become uniform and transparent at a compound concentration of 20% or more)	◯◯ (Become uniform and transparent at a compound concentration of 20% or more)	◯◯ (Become uniform and transparent at a compound concentration of 20% or more)	◯◯ (Become uniform and transparent at a compound concentration of 20% or more)	◯◯ (Become uniform and transparent at a compound concentration of 20% or more)	◯◯ (Become uniform and transparent at a compound concentration of 20% or more)	X-Δ (Become uniform and transparent at a compound concentration of 1%)	–	–	–	–	–	–
C=CCOCC(=C)C(=O)[O-].C=CCOCC(=C)C(=O)[O-].C=CCOCC(=C)C(=O)[O-].[Al+3] [Al(AMA)3]	–	100/100	–	–	–	–	–	–	–	–	–	–	–	–	–
C=CCOCC(=C)C(=O)[O-].C=CCOCC(=C)C(=O)[O-].C=CCOCC(=C)C(=O)[O-].[In+3] [In(AMA)3]	–	–	–	–	–	–	◯◯ (Become uniform and transparent at a compound concentration of 20% or more)	–	–	X-Δ	X-Δ	X-Δ	X-Δ	–	–
C=CC(=O)OCC(CC)(COC(=O)C=C)COC(=O)C=C [TMPTA, reference compound]	–	71/100	◯◯ (Become uniform and transparent at a compound concentration of 20% or more)	◯◯ (Become uniform and transparent at a compound concentration of 20% or more)	◯◯ (Become uniform and transparent at a compound concentration of 20% or more)	◯◯ (Become uniform and transparent at a compound concentration of 20% or more)	◯◯ (Become uniform and transparent at a compound concentration of 20% or more)	◯◯ (Become uniform and transparent at a compound concentration of 20% or more)	X (Not become uniform and transparent even at a compound concentration of 1%)	–	–	–	–	–	–
C=CCOCC(=C)C(=O)[O-].C=CCOCC(=C)C(=O)[O-].[O]=[Zr+2] [ZrO(AMA)2]	–	100/100	◯◯ (Become uniform and transparent at a compound concentration of 20% or more)	◯◯ (Become uniform and transparent at a compound concentration of 20% or more)	◯◯ (Become uniform and transparent at a compound concentration of 20% or more)	◯◯ (Become uniform and transparent at a compound concentration of 20% or more)	◯◯ (Become uniform and transparent at a compound concentration of 20% or more)	◯◯ (Become uniform and transparent at a compound concentration of 20% or more)	X (Not become uniform and transparent even at a compound concentration of 1%)	–	–	–	–	–	–
C=CCOCC(=C)C(=O)OCC(C)(C)COC(=O)C(=C)COCC=C [NPG-AMA, neopentyl glycol di(α-allyloxymethyl acrylate), reference compound]	–	72/100	◯◯ (Become uniform and transparent at a compound concentration of 20% or more)	◯◯ (Become uniform and transparent at a compound concentration of 20% or more)	◯◯ (Become uniform and transparent at a compound concentration of 20% or more)	◯◯ (Become uniform and transparent at a compound concentration of 20% or more)	◯◯ (Become uniform and transparent at a compound concentration of 20% or more)	◯◯ (Become uniform and transparent at a compound concentration of 20% or more)	X (Not become uniform and transparent even at a compound concentration of 1%)	–	–	–	–	–	–
